The experiment deals with T1, NK1 -receptor (substance P-receptor) (Homo sapiens, UniProt P25103).
T1 construct: intact human lymphoblastoma cells (IM-9) which express NK1 -receptors; endogenous in cells; host or cells: IM-9 human lymphoblastoma cells
As to the kind of experiment: NK1-receptor affinity: displacement of 125I labelled substance P on intact human lymphoblastoma cells (IM-9). It counts as binding. To be noted: intact human lymphoblastoma cells (IM-9) expressing NK1-receptors, read-out: Ki. As for the experimental part:
The receptor affinity for the NK1 -receptor (substance P-receptor) was determined on intact human lymphoblastoma cells (IM-9) which express NK1 -receptors, and the displacement of ^125 I labelled substance P was measured.
A general note: Loss of bound radioactivity is the signal in a displacement assay; it reports binding, not function.

T1 sequence (P25103 whole entry): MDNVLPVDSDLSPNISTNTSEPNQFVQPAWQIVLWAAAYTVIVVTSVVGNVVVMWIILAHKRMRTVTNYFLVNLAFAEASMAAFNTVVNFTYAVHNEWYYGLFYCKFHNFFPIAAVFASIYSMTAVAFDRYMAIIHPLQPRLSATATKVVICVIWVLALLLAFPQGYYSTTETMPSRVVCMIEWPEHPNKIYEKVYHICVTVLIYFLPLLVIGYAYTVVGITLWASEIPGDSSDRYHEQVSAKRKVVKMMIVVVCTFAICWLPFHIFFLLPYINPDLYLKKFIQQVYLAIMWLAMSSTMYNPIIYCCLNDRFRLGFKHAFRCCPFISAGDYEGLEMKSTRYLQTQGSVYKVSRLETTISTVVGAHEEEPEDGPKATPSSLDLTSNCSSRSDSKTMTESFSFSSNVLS

In the case of `COc1ccccc1C(CNCCc1cc(C(F)(F)F)cc(C(F)(F)F)c1)N1CCCCC1` (stereo not drawn) [Example 79, 2-(3,5-Bistrifluoromethylphenyl)-2'-(2-methoxyphenyl)-2'-piperidine-1-yl-diethylamine], the Ki (as a rule, the equilibrium dissociation constant of an inhibitor or competing ligand from its target) is 0.046 µM.

For the molecule `COc1ccccc1C(CNCc1cc(C(F)(F)F)cc(C(F)(F)F)c1)N1CCCCC1C` (stereo not drawn) [Example 80, 3,5-Bistrifluoromethylbenzyl-[2-(2-methoxyphenyl)-2-(2-methylpiperidine-1-yl)-ethyl]-amine], the Ki stood at 0.043 µM. Next, `COc1ccccc1C(CNCc1cc(C(F)(F)F)cc(C(F)(F)F)c1)N1CCCC(C)C1` (stereo not drawn) [Example 81, 3,5-Bistrifluoromethylbenzyl-[2-(2-methoxyphenyl)-2-(3-methylpiperidine-1-yl)-ethyl]-amine]: 0.09 µM; `COc1ccccc1C(CNCc1cc(C(F)(F)F)cc(C(F)(F)F)c1)N1CCC(C)CC1` (stereo not drawn) [Example 82, 3,5-Bistrifluoromethylbenzyl-[2-(2-methoxyphenyl)-2-(4-methylpiperidine-1-yl)-ethyl]-amine]: 0.052 µM. Next, `COc1ccccc1C(CNCc1cc(C(F)(F)F)cc(C(F)(F)F)c1)N1CC(C)CC(C)C1` (stereo not drawn) [Example 83, 3,5-Bistrifluoromethylbenzyl-[2-(2-methoxyphenyl)-2-(3,5-dimethylpiperidine-1-yl)-ethyl]-amine]: 0.209 µM; `COc1ccccc1C(CNCc1cc(C(F)(F)F)cc(C(F)(F)F)c1)N1CCC(C2CCCCC2)CC1` (stereo not drawn) [Example 89, 3,5-Bistrifluoromethylbenzyl-[2-(2-methoxyphenyl)-2-(4-cyclohexylpiperidine-1-yl)-ethyl]-amine]: 0.08 µM. With `COc1ccccc1C(CNCc1cc(C(F)(F)F)cc(C(F)(F)F)c1)N1CCC(N2CCCCC2)CC1` (stereo not drawn) [Example 91], the Ki amounted to 0.002 µM.

Regarding `FC(F)(F)c1cc(CNCC(c2ccccc2)N2CCOCC2)cc(C(F)(F)F)c1` (stereo not drawn) [Example 96, 3,5-Bistrifluoromethylbenzyl-(2-phenyl-2-morpholine-4-yl-ethyl)-amine], the Ki came to 0.185 µM. The figure for `COc1ccccc1C(CNCc1cc(C(F)(F)F)cc(C(F)(F)F)c1)N1CCC(c2c[nH]c3ccccc23)CC1` (stereo not drawn) [Example 97, 3,5-Bistrifluoromethylbenzyl-(2-(2-methoxyphenyl)-2-(4-(3-indolyl)-piperidine-1-yl)-ethyl]-amine] is 0.3 µM. Take `CN1CCN(C(CNC(=O)Nc2cc(C(F)(F)F)cc(C(F)(F)F)c2)c2ccccc2)CC1` (stereo not drawn) [Example 105, N-3,5-Bistrifluoromethylphenyl-N'-[2-phenyl-2-(4-methylpiperazine-1-yl)-ethyl]-urea]: the Ki came to 0.078 µM. The figure for `COc1ccccc1C(CNC(=O)Nc1cc(C(F)(F)F)cc(C(F)(F)F)c1)N1CCN(C)CC1` (stereo not drawn) [Example 107, N-3,5-Bistrifluoromethylphenyl-N'-[2-(2-methoxyphenyl)-2-(4-methylpiperazin-1-yl)-ethyl]-urea] is 0.25 µM. For the molecule `CCCN1CCN(C(CNC(=O)Nc2cc(C(F)(F)F)cc(C(F)(F)F)c2)c2ccccc2OC)CC1` (stereo not drawn) [Example 108, N-3,5-Bistrifluoromethylphenyl-N'-[2-(2-methoxyphenyl)-2-(4-(1-propyl)piperazine-1-yl)-ethyl]-urea], the Ki was determined as 0.034 µM.

For the molecule `COc1ccccc1C(CNC(=O)Nc1cc(C(F)(F)F)cc(C(F)(F)F)c1)N1CCN(C(C)C)CC1` (stereo not drawn) [Example 110, N-3,5-Bistrifluoromethylphenyl-N'-[2-(2-methoxyphenyl)-2-(4-(2-propyl)piperazin-1-yl)-ethyl]-urea], the Ki is 0.028 µM.

With `COc1ccccc1C(CNC(=O)Nc1cc(C(F)(F)F)cc(C(F)(F)F)c1)N1CCN(C2CCCC2)CC1` (stereo not drawn) [Example 111, N-3,5-Bistrifluoromethylphenyl-N'-[2-(2-methoxyphenyl)-2-(4-cyclopentylpiperazine-1-yl)-ethyl]-urea], the Ki amounted to 0.012 µM. Next, `O=C(NCC(c1ccccc1)N1CCN(C2CCCCC2)CC1)Nc1ccccc1` (stereo not drawn) [Example 112, N-Phenyl-N'-[2-phenyl-2-(4-cyclohexylpiperazine-1-yl)-ethyl]-urea]: 1 µM. On to `O=C(NCC(c1ccccc1)N1CCN(C2CCCCC2)CC1)Nc1ccccc1Cl` (stereo not drawn) [Example 113, N-2-Chlorophenyl-N'-[2-phenyl-2-(4-cyclohexylpiperazine-1-yl)-ethyl]-urea], for which the Ki worked out at 0.403 µM. The figure for `COc1ccccc1NC(=O)NCC(c1ccccc1)N1CCN(C2CCCCC2)CC1` (stereo not drawn) [Example 114, N-2-Methoxyphenyl-N'-[2-phenyl-2-(4-cyclohexylpiperazine-1-yl)-ethyl]-urea] is 0.49 µM; for `O=C(NCC(c1ccccc1)N1CCN(C2CCCCC2)CC1)Nc1cc(C(F)(F)F)cc(C(F)(F)F)c1` (stereo not drawn) [Example 115, N-3,5-Bistrifluoromethylphenyl-N'-[2-phenyl-2-(4-cyclohexylpiperazine-1-yl)-ethyl]-urea] it is 0.03 µM. The figure for `COc1ccccc1C(CNC(=O)Nc1cc(C(F)(F)F)cc(C(F)(F)F)c1)N1CCN(C2CCCCC2)CC1` (stereo not drawn) [Example 116, N-3,5-Bistrifluoromethylphenyl-N'-[2-(2-methoxyphenyl)-2-(4-cyclohexylpiperazine-1-yl)-ethyl]-urea] is 0.024 µM; for `O=C(NCC(c1ccc(Cl)c(Cl)c1)N1CCN(C2CCCCC2)CC1)Nc1cc(C(F)(F)F)cc(C(F)(F)F)c1` (stereo not drawn) [Example 117, N-3,5-Bistrifluoromethylphenyl-N'-[2-(3,4-dichlorophenyl)-2-(4-cyclohexylpiperazine-1-yl)-ethyl]-urea] it is 0.015 µM.

In the case of `COc1ccccc1C(CNC(=O)Nc1cc(C(F)(F)F)cc(C(F)(F)F)c1)N1CCN(C2CCCCCC2)CC1` (stereo not drawn) [Example 120, N-3,5-Bistrifluoromethylphenyl-N'-[2-(2-methoxyphenyl)-2-(4-cycloheptylpiperazine-1-yl)-ethyl]-urea], the inhibitory constant (Ki) came to 0.036 µM. Next, `COc1ccccc1C(CNC(=O)Nc1cc(C(F)(F)F)cc(C(F)(F)F)c1)N1CCN(CCC2CCCCC2)CC1` (stereo not drawn) [Example 121, N-3,5-Bistrifluoromethylphenyl-N'-[2-(2-methoxyphenyl)-2-(4-(2-cyclohexylethyl)piperazine-1-yl)-ethyl]-urea]: 0.124 µM; `O=C(NCC(c1ccccc1)N1CCN(c2ccccc2)CC1)Nc1cc(C(F)(F)F)cc(C(F)(F)F)c1` (stereo not drawn) [Example 123, N-3,5-Bistrifluoromethylphenyl-N'-[2-phenyl-2-(4-phenylpiperazine-1-yl)-ethyl]-urea]: 0.6 µM; `COc1ccccc1C(CNC(=O)Nc1cc(C(F)(F)F)cc(C(F)(F)F)c1)N1CCN(c2ccccc2)CC1` (stereo not drawn) [Example 142]: 0.65 µM. The figure for `O=C(NCC(c1ccccc1)N1CCN(Cc2ccccc2)CC1)Nc1cc(C(F)(F)F)cc(C(F)(F)F)c1` (stereo not drawn) [Example 146] is 0.115 µM; for `COc1ccccc1C(CNC(=O)Nc1cc(C(F)(F)F)cc(C(F)(F)F)c1)N1CCN(Cc2ccccc2)CC1` (stereo not drawn) [Example 147] it is 0.19 µM; for `COc1ccccc1C(CNC(=O)Nc1cc(C(F)(F)F)cc(C(F)(F)F)c1)N1CCN(Cc2ccc3c(c2)OCO3)CC1` (stereo not drawn) [Example 148, N-3,5-Bistrifluoromethylphenyl-N'-[2-(2-methoxyphenyl)-2-(3,4-methylenedioxybenzyl-piperazine-1-yl)-ethyl]-urea] it is 0.286 µM. Regarding `COc1ccccc1C(CNC(=O)Nc1cc(C(F)(F)F)cc(C(F)(F)F)c1)N1CCN(CCc2ccccc2)CC1` (stereo not drawn) [Example 150, N-3,5-Bistrifluoromethyl-phenyl-phenyl-N'-[2-(2-methoxyphenyl-2-(4-2-phenylethyl)-piperazine-1-yl)-ethyl]-urea], the Ki is 0.717 µM.

For `COc1ccccc1C(CNC(=O)Nc1cc(C(F)(F)F)cc(C(F)(F)F)c1)N1CCN(C(C)c2ccccc2)CC1` (stereo not drawn) [Example 151], the inhibitory constant (Ki) is 0.215 µM. On to `COc1ccccc1C(CNC(=O)Nc1cc(C(F)(F)F)cc(C(F)(F)F)c1)N1CCN(c2ccccn2)CC1` (stereo not drawn) [Example 156], for which the Ki was 0.479 µM. Next, `COc1ccccc1C(CNC(=O)Nc1cc(C(F)(F)F)cc(C(F)(F)F)c1)N1CCN(c2ccc3ccccc3n2)CC1` (stereo not drawn) [Example 158, N-3,5-Bistrifluoromethylphenyl-N'-[2-(2-methoxyphenyl)-2-(4-(2-quinolinyl)piperazine-1-yl)-ethyl]-urea]: 0.905 µM; `COc1ccccc1C(CNC(=O)Nc1cc(C(F)(F)F)cc(C(F)(F)F)c1)N1CCCCC1` (stereo not drawn) [Example 166]: 0.15 µM; `O=C(NCC(c1ccccc1)N1CCCCC1)Nc1cc(C(F)(F)F)cc(C(F)(F)F)c1` (stereo not drawn) [Example 167]: 1 µM. The figure for `COc1ccccc1C(CNC(=O)Nc1cc(C(F)(F)F)cc(C(F)(F)F)c1)N1CCCC(C)C1` (stereo not drawn) [Example 169] is 0.888 µM; for `COc1ccccc1C(CNC(=O)Nc1cc(C(F)(F)F)cc(C(F)(F)F)c1)N1CCC(C)CC1` (stereo not drawn) [Example 170] it is 0.084 µM; for `COc1ccccc1C(CNC(=O)Nc1cc(C(F)(F)F)cc(C(F)(F)F)c1)N1CCC(C2CCCCC2)CC1` (stereo not drawn) [Example 171, N-3,5-Bistrifluoromethylphenyl-N'-[2-(2-methoxyphenyl)-2-(4-cyclohexylpiperidin-1-yl)-ethyl]-urea] it is 0.898 µM. Next, `COc1ccccc1C(CNC(=O)Nc1cc(C(F)(F)F)cc(C(F)(F)F)c1)N1CC(C)CC(C)C1` (stereo not drawn) [Example 172]: 0.173 µM; `COc1ccccc1C(CNC(=O)Nc1cc(C(F)(F)F)cc(C(F)(F)F)c1)N1CCC(Cc2ccccc2)CC1` (stereo not drawn) [Example 175, N-3,5-Bistrifluoromethylphenyl-N'-[2-(2-methoxyphenyl)-2-(4-benzylpiperidin-1-yl)-ethyl]-urea]: 0.23 µM. With `COc1ccccc1C(CNC(=O)Nc1cc(C(F)(F)F)cc(C(F)(F)F)c1)N1C2CCCC1CC2` (stereo not drawn) [Example 176, N-3,5-Bistrifluoromethylphenyl-N'-[2-(2-methoxyphenyl)-2-(nortropan-8-yl)-ethyl]-urea], the Ki was 0.092 µM.

The values are drawn from patent US6191135A, “Neurokinin antagonists” (Boehringer Ingelheim KG, priority 1994, dated 2001).
